Tests used:
CB2 receptor [1] = target: CB2 receptor (Homo sapiens, UniProt P34972); assay type: binding
CB2 receptor [2] = conditions: cited from earlier work
CB2 receptor [3] = conditions: cited from earlier work; remark: listed apart in the source
[4] = cited from earlier work

Chain of CB2 receptor (Homo sapiens, UniProt P34972) (P34972 whole entry): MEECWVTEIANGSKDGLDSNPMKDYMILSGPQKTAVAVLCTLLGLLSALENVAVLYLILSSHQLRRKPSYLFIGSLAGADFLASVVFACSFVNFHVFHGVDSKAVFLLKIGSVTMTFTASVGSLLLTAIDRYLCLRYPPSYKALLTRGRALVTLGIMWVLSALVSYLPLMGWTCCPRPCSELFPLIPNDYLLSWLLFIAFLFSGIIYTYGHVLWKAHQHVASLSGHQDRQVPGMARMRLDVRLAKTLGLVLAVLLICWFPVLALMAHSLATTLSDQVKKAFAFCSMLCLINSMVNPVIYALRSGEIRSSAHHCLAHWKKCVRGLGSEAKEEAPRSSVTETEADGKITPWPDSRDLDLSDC

Structure (SMILES) | CB1/CB2 (ratio of Ki) (CB2 receptor [1]) | selectivity for the CB2 receptor (CB2 receptor [2]) [fold] | Ki (CB2 receptor [2]; read-out: Ki CB2) [nM] | agonism at the CB2 receptor (CB2 receptor [3]) | activity in the mouse model of cannabinoid activity [4]
CCCCCCC(C)(C)c1ccc([C@H]2CCC[C@@H](O)C2)c(OC)c1 (relative stereo) [JWH-441, (1R*,3S*)3-[2-Methoxy-4-(1,1-dimethylheptyl)phenyl]cyclohexanol] | >12 |  |  |  | 
CCCCCCC(C)(C)c1cc(OC)c2c(c1)OC(C)(C)C1CC=C(C)CC21 (stereo not drawn) [1-methoxy-3-(dimethylheptyl)-•^8-THC] |  | 12 | 57 |  | 
CCCC(C)(C)c1ccc2c(c1)OC(C)(C)[C@@H]1CC=C(C)C[C@@H]21 [JWH-133] |  | 200 |  | full agonist | inactive

Source: article PMC2920039 (Bioorganic & medicinal chemistry, 2010)
